Assay results taken from the NIST ThermoML archive (doi:10.1016/j.fluid.2007.09.028).
± gives the expanded uncertainty stated by the source.

Test: not given
Conditions: 288.15 K; 101 kPa; Liquid

First: CCCCO [butan-1-ol]
Second: CCCCCO [pentan-1-ol]
The mass density of the first is lower: 813.373 ± 0.45 kg/m3 for the first, 818.282 ± 0.54 kg/m3 for the second.

Going from `CCC(C)O` (stereo unspecified) [butan-2-ol] to `CCCO` [propan-1-ol], the mass density falls from 810.689 ± 0.55 kg/m3 to 807.69 ± 0.46 kg/m3.

`Clc1ccccc1` [chlorobenzene] gave a mass density of 1111.81 ± 0.3 kg/m3.

Same assay, conditions: 293.15 K; 101 kPa; Liquid

First: CCCCO [butan-1-ol]
Second: CCCCCO [pentan-1-ol]
The mass density of the first is lower: 809.573 ± 0.45 kg/m3 for the first, 814.635 ± 0.55 kg/m3 for the second.

Compared with `CCC(C)O` (stereo unspecified) [butan-2-ol], `CCCO` [propan-1-ol] is lower in mass density: 806.646 ± 0.56 kg/m3 for the first, 803.703 ± 0.46 kg/m3 for the second.

For `Clc1ccccc1` [chlorobenzene], the mass density was 1106.43 ± 0.29 kg/m3.

Same assay, conditions: 298.15 K; 101 kPa; Liquid

Going from `CCCCO` [butan-1-ol] to `CCCCCO` [pentan-1-ol], the mass density rises from 805.762 ± 0.46 kg/m3 to 810.968 ± 0.55 kg/m3.

First: CCC(C)O (stereo unspecified) [butan-2-ol]
Second: CCCO [propan-1-ol]
The mass density of the first is higher: 802.528 ± 0.56 kg/m3 for the first, 799.692 ± 0.47 kg/m3 for the second.

Work on `Clc1ccccc1` [chlorobenzene] yielded a mass density of 1101.04 ± 0.28 kg/m3.

Same assay, conditions: 303.15 K; 101 kPa; Liquid

First: CC(C)(C)O [2-methylpropan-2-ol]
Second: CCC(C)O (stereo unspecified) [butan-2-ol]
The mass density of the first is lower: 775.412 ± 0.49 kg/m3 for the first, 798.326 ± 0.56 kg/m3 for the second.

Going from `CCCCO` [butan-1-ol] to `CCCCCO` [pentan-1-ol], the mass density rises from 801.923 ± 0.47 kg/m3 to 807.278 ± 0.55 kg/m3.

Compared with `Clc1ccccc1` [chlorobenzene], `CCCO` [propan-1-ol] is lower in mass density: 1095.64 ± 0.28 kg/m3 for the first, 795.65 ± 0.47 kg/m3 for the second.

Same assay, conditions: 308.15 K; 101 kPa; Liquid

First: CC(C)(C)O [2-methylpropan-2-ol]
Second: CCC(C)O (stereo unspecified) [butan-2-ol]
The mass density of the first is lower: 770.193 ± 0.49 kg/m3 for the first, 794.03 ± 0.57 kg/m3 for the second.

First: CCCCO [butan-1-ol]
Second: CCCCCO [pentan-1-ol]
The mass density of the first is lower: 798.053 ± 0.47 kg/m3 for the first, 803.558 ± 0.56 kg/m3 for the second.

Going from `Clc1ccccc1` [chlorobenzene] to `CCCO` [propan-1-ol], the mass density falls from 1090.23 ± 0.27 kg/m3 to 791.576 ± 0.48 kg/m3.

Same assay, conditions: 313.15 K; 101 kPa; Liquid

Going from `CC(C)(C)O` [2-methylpropan-2-ol] to `CCC(C)O` (stereo unspecified) [butan-2-ol], the mass density rises from 764.884 ± 0.5 kg/m3 to 789.632 ± 0.58 kg/m3.

First: CCCCO [butan-1-ol]
Second: CCCCCO [pentan-1-ol]
The mass density of the first is lower: 794.147 ± 0.48 kg/m3 for the first, 799.817 ± 0.56 kg/m3 for the second.

First: Clc1ccccc1 [chlorobenzene]
Second: CCCO [propan-1-ol]
The mass density of the first is higher: 1084.82 ± 0.26 kg/m3 for the first, 787.466 ± 0.49 kg/m3 for the second.

Same assay, conditions: 318.15 K; 101 kPa; Liquid

Compared with `CC(C)(C)O` [2-methylpropan-2-ol], `Clc1ccccc1` [chlorobenzene] is higher in mass density: 759.488 ± 0.51 kg/m3 for the first, 1079.42 ± 0.25 kg/m3 for the second.

Same assay, conditions: 323.15 K; 101 kPa; Liquid

Compared with `CC(C)(C)O` [2-methylpropan-2-ol], `Clc1ccccc1` [chlorobenzene] is higher in mass density: 754.015 ± 0.52 kg/m3 for the first, 1073.97 ± 0.24 kg/m3 for the second.

Test: xn = mol fraction of the nth substance listed
Conditions: 288.15 K; 101 kPa; Liquid; x1 = 1

Going from `CCCCO` [butan-1-ol] + Clc1ccccc1 to `CCCCCO` [pentan-1-ol] + Clc1ccccc1, the mass density rises from 813.373 ± 0.45 kg/m3 to 818.282 ± 0.54 kg/m3.

First: CCC(C)O (stereo unspecified) [butan-2-ol] + Clc1ccccc1
Second: CCCO [propan-1-ol] + Clc1ccccc1
The mass density of the first is higher: 810.689 ± 0.55 kg/m3 for the first, 807.69 ± 0.46 kg/m3 for the second.

Same assay, conditions: 293.15 K; 101 kPa; Liquid; x1 = 1

Compared with `CCCCO` [butan-1-ol] + Clc1ccccc1, `CCCCCO` [pentan-1-ol] + Clc1ccccc1 is higher in mass density: 809.573 ± 0.45 kg/m3 for the first, 814.635 ± 0.55 kg/m3 for the second.

Going from `CCC(C)O` (stereo unspecified) [butan-2-ol] + Clc1ccccc1 to `CCCO` [propan-1-ol] + Clc1ccccc1, the mass density falls from 806.646 ± 0.56 kg/m3 to 803.703 ± 0.46 kg/m3.

Same assay, conditions: 298.15 K; 101 kPa; Liquid; x1 = 1

Compared with `CCCCO` [butan-1-ol] + Clc1ccccc1, `CCCCCO` [pentan-1-ol] + Clc1ccccc1 is higher in mass density: 805.762 ± 0.46 kg/m3 for the first, 810.968 ± 0.55 kg/m3 for the second.

Compared with `CCC(C)O` (stereo unspecified) [butan-2-ol] + Clc1ccccc1, `CCCO` [propan-1-ol] + Clc1ccccc1 is lower in mass density: 802.528 ± 0.56 kg/m3 for the first, 799.692 ± 0.47 kg/m3 for the second.

Same assay, conditions: 303.15 K; 101 kPa; Liquid; x1 = 1

Going from `CC(C)(C)O` [2-methylpropan-2-ol] + Clc1ccccc1 to `CCC(C)O` (stereo unspecified) [butan-2-ol] + Clc1ccccc1, the mass density rises from 775.412 ± 0.49 kg/m3 to 798.326 ± 0.56 kg/m3.

Going from `CCCCO` [butan-1-ol] + Clc1ccccc1 to `CCCCCO` [pentan-1-ol] + Clc1ccccc1, the mass density rises from 801.923 ± 0.47 kg/m3 to 807.278 ± 0.55 kg/m3.

In the case of `CCCO` [propan-1-ol] + Clc1ccccc1, the mass density is reported as 795.65 ± 0.47 kg/m3.

Same assay, conditions: 308.15 K; 101 kPa; Liquid; x1 = 1

Going from `CC(C)(C)O` [2-methylpropan-2-ol] + Clc1ccccc1 to `CCC(C)O` (stereo unspecified) [butan-2-ol] + Clc1ccccc1, the mass density rises from 770.193 ± 0.49 kg/m3 to 794.03 ± 0.57 kg/m3.

Compared with `CCCCO` [butan-1-ol] + Clc1ccccc1, `CCCCCO` [pentan-1-ol] + Clc1ccccc1 is higher in mass density: 798.053 ± 0.47 kg/m3 for the first, 803.558 ± 0.56 kg/m3 for the second.

Compound `CCCO` [propan-1-ol] + Clc1ccccc1 has a mass density of 791.576 ± 0.48 kg/m3.

Same assay, conditions: 313.15 K; 101 kPa; Liquid; x1 = 1

Compared with `CC(C)(C)O` [2-methylpropan-2-ol] + Clc1ccccc1, `CCC(C)O` (stereo unspecified) [butan-2-ol] + Clc1ccccc1 is higher in mass density: 764.884 ± 0.5 kg/m3 for the first, 789.632 ± 0.58 kg/m3 for the second.

Going from `CCCCO` [butan-1-ol] + Clc1ccccc1 to `CCCCCO` [pentan-1-ol] + Clc1ccccc1, the mass density rises from 794.147 ± 0.48 kg/m3 to 799.817 ± 0.56 kg/m3.

Work on `CCCO` [propan-1-ol] + Clc1ccccc1 yielded a mass density of 787.466 ± 0.49 kg/m3.

Same assay, conditions: 318.15 K; 101 kPa; Liquid; x1 = 1

`CC(C)(C)O` [2-methylpropan-2-ol] + Clc1ccccc1 gave a mass density of 759.488 ± 0.51 kg/m3.

Same assay, conditions: 323.15 K; 101 kPa; Liquid; x1 = 1

`CC(C)(C)O` [2-methylpropan-2-ol] + Clc1ccccc1 showed a mass density of 754.015 ± 0.52 kg/m3.
